Data taken from patent US12303521B2, “Methods for treating liver cancers using an orally administered dioxolane nucleotide in combination with an anti-PD1 or anti-PDL1 monoclonal antibody” (MEDIVIR AB, priority 2019, dated 2025).
“Also recorded” adds a separate entry of the source.

Tests used:
[1] = test system: HT-29 colorectal adenocarcinoma cell line+HDFn+PBMC; test: BioMAP StroHT29 system; assay type: cell-based, human; conditions: stromal IL-6, FIG. 14
Description: (§1) To recapitulate the complex signaling networks that manifest in the multi-component TME, the BioMAP Oncology systems co-culture human primary immune cells with primary tissue cells in the presence of a specific cancer cell line. These co-cultures are stimulated with submitogenic levels of T cell receptor (TCR) ligands to prime, but not maximally activate T cells and model immune cells recruited to the intra-tumoural microenvironment.
There are two BioMAP Oncology panels that model the interactions between the immune-stromal (fibroblasts) and immune-vascular (endothelial cells) environments in the context of colon cancer (HT-29 CRC cell line), or in the context of non-small lung cancer (NCI-H1299 NSCLC cell line). The interactions between tumour cells, stimulated immune cells (peripheral blood mononuclear cells (PBMC)), and the host stromal network (human neonatal dermal fibroblasts (HDFn)) is captured in the Stro Oncology systems. […]
Adherent cell types are cultured in 96-well plates until confluent, followed by the addition of PBMC. […] Soluble factors from supernatants are quantified using either HTRF® detection, bead-based multiplex immunoassay or capture ELISA. Effects of test agents on cell viability (cytotoxicity) are measured by sulforhodamine B (SRB) for adherent cells (48-hrs), and by alamarBlue® reduction for cells in suspension (42-hrs) at the time points indicated. […]

SK-OV-3 tumour cells = test: PBMC-mediated tumour cell killing; assay type: cell-based, human; conditions: anti-CD3 stimulated PBMC co-culture, 68 hrs, 5000 nM MIV-818
Protocol: Whole blood from three healthy donors was used. PBMC were isolated over a density gradient and counted before adding to NucLight Red labelled tumour targets at a defined E:T ratio in the presence of anti-CD3 stimulation. Tumour cell—PBMC co-cultures were incubated with test compounds at eight concentrations. Appropriate controls were included: PBMC alone, tumour cells alone, tumour cells/PBMC in the presence of a reference compound at a single concentration. All test conditions were also plated onto tumour cells in the absence of stimulated PBMC in order to detect direct compound-associated tumour cytotoxicity. Tumour killing was evaluated by counting viable NucLight positive tumour cells over time. In addition, a Caspase 3/7 dye was used to identify apoptotic tumour cells. Cultures were analysed using an IncuCyte ZOOM machine which allows real-time quantitative live cell fluorescent imaging. Co-cultures were imaged over 68 hrs. Each culture condition was established in triplicate. Cell culture supernatants were stored for optional cytokine analysis.
PBMC were isolated from 3 healthy donors and added to co-cultures with anti-CD3 stimulation and NucLight Red labelled SK-OV-3 tumour cells. […] SK-OV-3 apoptotic cell death was monitored in the co-culture system by imaging for 68 hours using the IncuCyte Zoom software.

Human PBMC = test: IL-2 expression in SEB-stimulated PBMC cultures; assay type: cell-based; conditions: five days, Luminex
HepG2 = test: IC50 in representative HCC cell line HepG2; assay type: cell-based; conditions: Homo sapiens
HT-29 = test: Sensitivity of HT-29 cells to MIV-818 alone (IC50); assay type: cell-based; conditions: Homo sapiens; HT-29, MIV-818 alone
[2] = Stability in rodent blood / plasma; assay type: in vitro ADME
[3] = Stability in human plasma; assay type: in vitro ADME
[4] = test system: vascular or stromal models of HT-29 and peripheral blood mononuclear cells (PBMCs); test: BioMAP Oncology CRC panel, system not specified (tumour immune microenvironment model); assay type: cell-based, human; conditions: 4 concentrations, 48-hrs, vs vehicle control
Description: as §1
There are two BioMAP Oncology panels that model the interactions between the immune-stromal (fibroblasts) and immune-vascular (endothelial cells) environments in the context of colon cancer (HT-29 CRC cell line), or in the context of non-small lung cancer (NCI-H1299 NSCLC cell line). The interactions between tumour cells, stimulated immune cells (peripheral blood mononuclear cells (PBMC)), and the host stromal network (human neonatal dermal fibroblasts (HDFn)) is captured in the Stro Oncology systems. In parallel, the Vasc systems capture the interactions between tumour cells, activated immune cells and the vascular tissue (human umbilical vein endothelial cells (HUVEC). The biomarkers selected for the Oncology panels inform on activities related to inflammation, immune-function, tissue remodeling and metastasis in the context of a host tumour-microenvironment. Collectively, the Oncology CRC panel and the Oncology NSCLC panel.
Human primary cells in BioMAP systems are used at early passage (passage 4 or earlier) to minimize adaptation to cell culture conditions and preserve physiological signaling responses. All primary cells are pooled from multiple donors (n=3-6), commercially purchased and handled according to the recommendations of the manufacturers. The HT-29 CRC cell line and the NCI-H1299 NSCLC cell line are purchased from American Type Culture Collection (ATCC). Abbreviations are used as follows: human umbilical vein endothelial cells (HUVEC), peripheral blood mononuclear cells (PBMC), human neonatal dermal fibroblasts (HDFn) and T cell receptor (TCR). Systems in both the Oncology CRC and NSCLC panels are stimulated by sub-mitogenic levels of super antigens (SAg) acting via the TCR to recapitulate the recruitment of immune cells to the tumour environment in situ. These stimulation conditions are optimized to activate or prime T cells, but not drive T cell proliferation.
Cell types used in each of the CRC systems are as follows: StroHT29 system [HT-29 colorectal adenocarcinoma cell line+HDFn+PBMC] and VascHT29 system [HT-29 colorectal adenocarcinoma cell line+HUVEC+PBMC].
Adherent cell types are cultured in 96-well plates until confluent, followed by the addition of PBMC. Test agents prepared in either DMSO (small molecules; final concentration ≤0.1%) or PBS (biologics) are added at the specified concentrations 1-hr before stimulation, and remain in culture for 48-hrs. Each plate contains drug controls (e.g., legacy control test agent colchicine), negative controls (e.g., non-stimulated condition) and vehicle controls (e.g., 0.1% DMSO). Direct ELISA is used to measure biomarker levels of cell-associated and cell membrane targets. Soluble factors from supernatants are quantified using either HTRF® detection, bead-based multiplex immunoassay or capture ELISA. Effects of test agents on cell viability (cytotoxicity) are measured by sulforhodamine B (SRB) for adherent cells (48-hrs), and by alamarBlue® reduction for cells in suspension (42-hrs) at the time points indicated. All test agents are tested in standardized formats at 4 concentrations, in triplicate. Colchicine stimulated wells, vehicle control treated wells, and wells without stimulation are included as controls on each plate (n=3-8). Data acceptance criteria are based on plate performance (% CV of controls), and the performance of positive controls across assays with a comparison to historical controls. […]

[5] = pulmonary metastatic liver cancer, Wu et al 2017; cited from earlier work

Molecule | sIL-6 in the stromal HT-29 system [1] | PBMC-mediated tumour cell killing (apoptotic SK-OV-3 counts) (SK-OV-3 tumour cells) | IL-2 expression (Human PBMC) | IC50 (HepG2) | IC50 (HT-29) | metabolism in rodent blood ([2]; rodent blood) | stability in rodent plasma ([2]; rodent plasma) | stability in human plasma [3] | Collagen III [4] | IP-10 [4] | VCAM-1 [4] | sIFNγ [4] | sIL-6 [4] | sIL-17A [4] | uPAR [4] | adverse event reported [5]
CCC[C@H](C)OC(=O)[C@H](C)NP(=O)(OC[C@H]1OC[C@@H](n2ccc(N)nc2=O)O1)Oc1ccc(Br)cc1 (stereo in doubt) [MIV-818] | inhibits | enhance | induced | ~0.02 µM | ~0.02 µM | very quickly metabolized | extremely unstable | stable | decreased | decreased | decreased | increased | decreased | increased | Decreased | 
pembrolizumab: humanized monoclonal IgG4 antibody directed against human cell surface receptor PD-1 | increase; also recorded: modest enhancement |  |  |  |  |  |  |  |  |  |  |  |  |  |  | liver failure
